PMC6925260 (Nature Communications, 2019)
Changes are numbered by the printed parent chain. Read-outs that look alike come from different tables or passages of the source.

Assays:
[1] = biological target: T1, PPARγ LBD (wt) / NCoR CoRNR box peptide (Homo sapiens, UniProt P37231); test: Fluorescence anisotropy, NCoR peptide to wt PPARγ LBD (alone or ligand bound); type: binding
T1 construct: 6× His tag with TEV recognition site (N, cleaved yes); made in house; host or cells: E. coli BL21 (DE3) gold
T1 sequence (P37231 230-505): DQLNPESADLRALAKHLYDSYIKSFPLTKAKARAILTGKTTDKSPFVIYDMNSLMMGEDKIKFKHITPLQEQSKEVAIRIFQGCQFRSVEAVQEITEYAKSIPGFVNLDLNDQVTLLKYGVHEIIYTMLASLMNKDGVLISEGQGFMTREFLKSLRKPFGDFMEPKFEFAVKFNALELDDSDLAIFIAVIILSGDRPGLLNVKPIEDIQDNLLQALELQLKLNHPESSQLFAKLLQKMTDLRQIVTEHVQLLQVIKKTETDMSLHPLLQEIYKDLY
Procedure: (§1) These samples were then plated as usual.

[2] = biological target: T2, PPARγ LBD (wt) / MED1 LxxLL peptide (Homo sapiens, UniProt P37231); test: Fluorescence anisotropy, MED1 peptide to wt PPARγ LBD (alone or ligand bound); type: binding
T2 construct: 6× His tag with TEV recognition site (N, cleaved yes); made in house; host or cells: E. coli BL21 (DE3) gold
T2 sequence (P37231 230-505): T1 sequence (P37231 230-505)
Procedure: as §1

[3] = biological target: T3, PPARγC313A,Q322C-BTFA LBD / NCoR peptide (Homo sapiens, UniProt P37231, C313A/Q322C); test: Fluorescence anisotropy, NCoR peptide to PPARγC313A,Q322C-BTFA LBD; type: binding; conditions: Supp. Table 2
T3 construct: 6× His tag with TEV recognition site (N, cleaved yes); made in house; host or cells: E. coli BL21 (DE3) gold
T3 sequence (P37231 230-505 C313A/Q322C): T1 sequence (P37231 230-505) with C84A, Q93C
Procedure: as §1

[4] = biological target: T4, N340A PPARγ LBD / NCoR peptide (Homo sapiens, UniProt P37231, N340A); test: Fluorescence anisotropy, NCoR peptide to N340A PPARγ LBD; type: binding; conditions: read-out: NCoR dissociation constant average, N340A; Supp. Fig. 11
T4 construct: 6× His tag with TEV recognition site (N, cleaved yes); made in house; host or cells: E. coli BL21 (DE3) gold
Procedure: as §1

[5] = biological target: T5, K347A PPARγ LBD / NCoR peptide (Homo sapiens, UniProt P37231, K347A); test: Fluorescence anisotropy, NCoR peptide to K347A PPARγ LBD; type: binding; conditions: read-out: NCoR dissociation constant average, K347A; Supp. Fig. 11
T5 construct: 6× His tag with TEV recognition site (N, cleaved yes); made in house; host or cells: E. coli BL21 (DE3) gold
Procedure: as §1

[6] = biological target: T6, K329A PPARγ LBD / SMRT peptide (Homo sapiens, UniProt P37231, K329A); test: Fluorescence anisotropy, SMRT peptide to K329A PPARγ LBD; type: binding
T6 construct: 6× His tag with TEV recognition site (N, cleaved yes); made in house; host or cells: E. coli BL21 (DE3) gold
T6 sequence (P37231 230-505 K329A): T1 sequence (P37231 230-505) with K100A
Procedure: as §1

[7] = biological target: T7, K347A PPARγ LBD / SMRT peptide (Homo sapiens, UniProt P37231, K347A); test: Fluorescence anisotropy, SMRT peptide to K347A PPARγ LBD; type: binding
T7 construct: 6× His tag with TEV recognition site (N, cleaved yes); made in house; host or cells: E. coli BL21 (DE3) gold
T7 sequence (P37231 230-505 K347A): T1 sequence (P37231 230-505) with K118A
Procedure: as §1

[8] = system: PPARγ LBD, deletion of helix 12 / SMRT peptide; test: Fluorescence anisotropy, SMRT peptide to helix 12 deleted (DH12) PPARγ LBD; type: binding
Procedure: as §1

PPARg LBD DH12 = test: Supplementary Figure 11: fluorescence anisotropy dissociation constants, DH12 (peptide not given); type: binding
PPARγ = conditions: Supp. Table 9 summary; comparator apo/vehicle; ref 1,4 (supplement); cited from earlier work
[9] = biological target: PPARγ LBD (wt) / CBP peptide (Homo sapiens, UniProt P37231); test: Fluorescence anisotropy, CBP peptide to wt PPARγ LBD
PPARg LBD N340A = test: Supplementary Figure 11: fluorescence anisotropy dissociation constants, N340A (peptide not given)

For `O=C(Nc1ccccc1)c1cc([N+](=O)[O-])ccc1Cl` [GW9662], the “NCoR Kd mean difference ±SE, Apo vs ligand” value ([1]; Supp. Table 3, wt, one-way ANOVA, Dunnett's, 11 df) was 150 ±39, the “effect on corepressor CoRNR box peptide affinity” value ([1]; Supp. Table 9 summary, NCoR and SMRT, comparator apo) was “é” and the Kd ([1]; read-out: NCoR Kd, wt, Supp. Table 2, wt values not from the same experiment as PPARγC313A,Q322C-BTFA (first wt column)) was 0.273 µM. For the same molecule, the Kd ([1]; read-out: NCoR Kd, WT, ligand-bound, run 1) was 0.219 µM, the Kd ([1]; read-out: NCoR Kd, WT, ligand-bound, run 2) was 0.157 µM and the Kd ([1]; read-out: NCoR WT Kd, Supp. Table 1, wt PPARγ LBD, FITC peptide 50 nM, fluorescence anisotropy, pH 7.4, 2 h room temperature, average of two technical replicates) was 0.42 µM. The Kd ([1]; read-out: NCoR dissociation constant average, wt, Supp. Fig. 11) was 0.255 µM, the “effect on affinity/recruitment of NCoR CoRNR peptide” value ([1]; versus apo) was “increase affinity” and the “effect on coactivator LxxLL box peptide affinity” value ([2]; Supp. Table 9 summary, comparator apo) was “no effect”. The Kd ([2]; read-out: MED1 Kd, wt, Supp. Table 2, wt values not from the same experiment as PPARγC313A,Q322C-BTFA (first wt column)) was 4.22 µM, the Kd ([2]; read-out: MED1 WT Kd, Supp. Table 1, wt PPARγ LBD, FITC peptide 50 nM, fluorescence anisotropy, pH 7.4, 2 h room temperature) was 4.9 µM and the “NCoR fold change (labeled/wt), PPARγC313A,Q322C-BTFA” value [3] was 1.3. For the same molecule, the Kd ([3]; read-out: NCoR Kd, PPARγC313A,Q322C-BTFA, covalent ligands T0070907, GW9662 expected to be apo-like) was 0.348 µM, the Kd [4] was 0.485 µM and the Kd [5] was 0.59 µM. For the same molecule, the “SMRT Kd, wt vs K329A mean difference ± SE” value ([6]; Supp. Fig. 12) was -1916±631, the Kd ([6]; Supp. Fig. 12, read-out: SMRT dissociation constant average, K329A) was 2.55 µM and the Kd ([6]; run SMRT FP 4 5 18, read-out: SMRT dissociation constant, K329A) was 1.33 µM. For the same molecule, the Kd ([6]; run SMRT FP 4 6 18, read-out: SMRT dissociation constant, K329A) was 1.85 µM, the Kd ([6]; run SMRT FP 4 10 18, T0070907 value 5903 excluded by the authors, read-out: SMRT dissociation constant, K329A) was 4.47 µM and the “SMRT Kd, wt vs K347A mean difference ± SE” value ([7]; Supp. Fig. 12) was 64 ± 631. The Kd ([7]; Supp. Fig. 12, read-out: SMRT dissociation constant average, K347A) was 0.57 µM, the Kd ([7]; run SMRT FP 4 5 18, read-out: SMRT dissociation constant, K347A) was 0.527 µM and the Kd ([7]; run SMRT FP 4 6 18, read-out: SMRT dissociation constant, K347A) was 0.638 µM. The Kd ([7]; run SMRT FP 4 10 18, read-out: SMRT dissociation constant, K347A) was 0.546 µM, the “SMRT Kd, wt vs DH12 mean difference ± SE” value ([8]; Supp. Fig. 12) was 314 ±631 and the Kd ([8]; Supp. Fig. 12, read-out: SMRT dissociation constant average, DH12) was 0.32 µM. The Kd ([8]; run SMRT FP 4 5 18, read-out: SMRT dissociation constant, DH12) was 0.361 µM, the Kd ([8]; run SMRT FP 4 6 18, read-out: SMRT dissociation constant, DH12) was 0.301 µM and the Kd ([8]; run SMRT FP 4 10 18, read-out: SMRT dissociation constant, DH12) was 0.298 µM. It also gave a Kd (PPARg LBD DH12; data set 6-23-17, read-out: dissociation constant) of 0.0662 µM, a Kd (PPARg LBD DH12; data set 6-26-17 FP, read-out: dissociation constant) of 0.155 µM and a Kd (PPARg LBD DH12; data set FP 3 15 18 Inverse agonism part 2, read-out: dissociation constant) of 0.0271 µM. For the same molecule, the Kd (PPARg LBD DH12; data set PPARg LBD DH12 9-26-17, read-out: dissociation constant) was 0.145 µM, the Kd (PPARg LBD DH12; data set PPARg LBD DH12 10-24-17, read-out: dissociation constant) was 0.0731 µM and the “effect on reporter expression in cells” value (PPARγ) was “no effect”. The Kd ([9]; read-out: CBP Kd, ligand-bound, run 1) was 4.7 µM, the Kd ([9]; read-out: CBP Kd, ligand-bound, run 2) was 3.35 µM and the Kd (PPARg LBD N340A; read-out: dissociation constant, Average N340A values, average of the listed data sets) was 0.485 µM. It also gave a Kd (PPARg LBD N340A; read-out: dissociation constant, data set FP 3 15 18 Inverse agonism part 2) of 0.342 µM and a Kd (PPARg LBD N340A; read-out: dissociation constant, data set PPARg LBD N340A 12 11 17) of 0.628 µM.
